Results published in PubChem BioAssay AID256 (DTP/NCI, 2004).
Values joined by “and” are separate entries in the source; they are usually repeats but may differ in a detail not shown here. Equal values may be shown once. Toxic doses and inconclusive results are not listed.

Tested on: CD2F1 mice, L1210 leukemia ip, survival T/C
Assay: NCI In Vivo Anticancer Drug Screen. Data for tumor model L1210 Leukemia (intraperitoneal) in CD2F1 (CDF1) mice
Settings: higher = longer survival
In short: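 Tumor-bearing mice (transplanted tumor) were split into treated and vehicle control groups, and the measured endpoint of each treated group was divided by that of its vehicle controls.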

[1] = endpoint: mean survival time, dose: 100.0 mg/kg/injection, schedule: Q04DX003 (ip), vehicle: saline
[2] = endpoint: mean survival time, dose: 200.0 mg/kg/injection, schedule: Q04DX003 (ip), vehicle: saline
[3] = endpoint: mean survival time, dose: 200.0 mg/kg/injection, schedule: Q01DX009 (ip), vehicle: other
[4] = endpoint: mean survival time, dose: 400.0 mg/kg/injection, schedule: Q01DX009 (ip), vehicle: other

`CCCCCCCCCCCCCCNC(=O)C[N+](C)(C)Cc1ccccc1` was tested, and the T/C (endpoint: mean survival time, dose: 0.25 mg/kg/injection, schedule: Q01DX009 (ip), vehicle: saline sonified) was 101 % of control, the T/C (endpoint: mean survival time, dose: 0.5 mg/kg/injection, schedule: Q01DX009 (ip), vehicle: saline sonified) was 95 % of control and the T/C (endpoint: mean survival time, dose: 1.0 mg/kg/injection, schedule: Q01DX009 (ip), vehicle: saline sonified) was 95 % of control. For the same compound, the T/C (endpoint: mean survival time, dose: 5.0 mg/kg/injection, schedule: Q04DX003 (ip), vehicle: saline) was 96 % of control and the T/C (endpoint: mean survival time, dose: 10.0 mg/kg/injection, schedule: Q04DX003 (ip), vehicle: saline) was 96 % of control.
With `COc1ccc(Cl)cc1C/C=N/N(C)C` the T/C (endpoint: mean survival time, dose: 75.0 mg/kg/injection, schedule: Q01DX001 (ip), vehicle: saline) was 103 % of control and the T/C (endpoint: mean survival time, dose: 150.0 mg/kg/injection, schedule: Q01DX001 (ip), vehicle: saline) was 105 % of control.
With `O=C(O)CBr.O=C(O)CBr.[NH-]C1CCCCCCC1[NH-].[Pt+2]` (stereo unspecified) the T/C (endpoint: mean survival time, dose: 4.68 mg/kg/injection, schedule: Q01DX001 (ip), vehicle: distilled water + Tween-80) was 122 % of control, the T/C (endpoint: mean survival time, dose: 9.36 mg/kg/injection, schedule: Q01DX001 (ip), vehicle: distilled water + Tween-80) was 119 % of control and the T/C (endpoint: mean survival time, dose: 18.75 mg/kg/injection, schedule: Q01DX001 (ip), vehicle: distilled water + Tween-80) was 161 % of control.
`Nc1ncnc2c1c(-c1nnc3c(n1)-c1ccccc1C3=O)cn2C1OC(CO)C(O)C1O` (stereo unspecified) was tested, and the T/C (endpoint: mean survival time, dose: 100.0 mg/kg/injection, schedule: Q01DX005 (ip), vehicle: saline) was 100 % of control and the T/C (endpoint: mean survival time, dose: 200.0 mg/kg/injection, schedule: Q01DX005 (ip), vehicle: saline) was 100 % of control.
With `[N-]=[N+]=c1c(=O)c2ccccc2c1=O` the T/C (endpoint: mean survival time, dose: 100.0 mg/kg/injection, schedule: Q01DX001 (ip), vehicle: saline with Tween-80) was 96 % of control, the T/C (endpoint: mean survival time, dose: 200.0 mg/kg/injection, schedule: Q01DX001 (ip), vehicle: saline with Tween-80) was 94 % of control and the T/C (endpoint: mean survival time, dose: 400.0 mg/kg/injection, schedule: Q01DX001 (ip), vehicle: saline with Tween-80) was 104 % of control.
With `CC(N)CCC(C)(C)O` (stereo unspecified) the T/C [1] was 92 % of control and the T/C [2] was 100 % of control.
With `CC1=CC(O)(C2(O)C=C(C)CC(C)(C)C2)CC(C)(C)C1` (stereo unspecified) the T/C (endpoint: mean survival time, dose: 100.0 mg/kg/injection, schedule: Q01DX009 (ip), vehicle: other) was 102 % of control, the T/C (endpoint: mean survival time, dose: 100.0 mg/kg/injection, schedule: Q04DX003 (ip), vehicle: other) was 102 % of control and the T/C [3] was 90 % of control. The T/C (endpoint: mean survival time, dose: 200.0 mg/kg/injection, schedule: Q04DX003 (ip), vehicle: other) was 96 % of control, the T/C [4] was 88 % of control and the T/C (endpoint: mean survival time, dose: 400.0 mg/kg/injection, schedule: Q04DX003 (ip), vehicle: other) was 94 % of control.
In the case of `COc1cc2ccc(/C(C)=N/OC(C)=O)cc2cc1OC`, the T/C (endpoint: mean survival time, dose: 100.0 mg/kg/injection, schedule: Q01DX009 (ip), vehicle: saline with Tween-80) is reported as 100 % of control, the T/C (endpoint: mean survival time, dose: 200.0 mg/kg/injection, schedule: Q01DX009 (ip), vehicle: saline with Tween-80) is reported as 102 % of control and the T/C (endpoint: mean survival time, dose: 400.0 mg/kg/injection, schedule: Q01DX009 (ip), vehicle: saline with Tween-80) is reported as 97 % of control.
In the case of `C[N+]12CCN(CC1)CC2`, the T/C [1] is reported as 102 % of control, the T/C [2] is reported as 104 % of control and the T/C (endpoint: mean survival time, dose: 400.0 mg/kg/injection, schedule: Q04DX003 (ip), vehicle: saline) is reported as 104 % of control.
With `Fc1c(F)c(F)[c]([Sn]([c]2ccccc2)([c]2ccccc2)[c]2ccccc2)c(F)c1F` the T/C (endpoint: mean survival time, dose: 12.5 mg/kg/injection, schedule: Q04DX003 (ip), vehicle: saline with Tween-80) was 88 % of control and the T/C (endpoint: mean survival time, dose: 25.0 mg/kg/injection, schedule: Q04DX003 (ip), vehicle: saline with Tween-80) was 88 % of control.
For `O=C(O)C(=O)O.[La]`, the T/C [3] was 98 % of control and the T/C [4] was 96 % of control.
In the case of `CCC1(O)C(=O)OCc2c1cc1n(c2=O)Cc2cc3cc(N)ccc3nc2-1` (stereo unspecified), the T/C (endpoint: median survival time, dose: 1.35 mg/kg/injection, schedule: Q01DX005 (ip), vehicle: saline) is reported as 243 % of control, the T/C (endpoint: median survival time, dose: 1.87 mg/kg/injection, schedule: Q01DX005 (ip), vehicle: saline) is reported as 188 % of control and the T/C (endpoint: median survival time, dose: 2.0 mg/kg/injection, schedule: Q04DX002 (ip), vehicle: saline) is reported as 158 % of control. The T/C (endpoint: median survival time, dose: 2.25 mg/kg/injection, schedule: Q01DX005 (ip), vehicle: saline) was 243 % of control, the T/C (endpoint: median survival time, dose: 3.75 mg/kg/injection, schedule: Q01DX005 (ip), vehicle: saline) was 271 % of control and 365 % of control and the T/C (endpoint: median survival time, dose: 4.0 mg/kg/injection, schedule: Q04DX002 (ip), vehicle: saline) was 157 % of control and 170 % of control. The T/C (endpoint: median survival time, dose: 6.25 mg/kg/injection, schedule: Q01DX005 (ip), vehicle: saline) was 90 % of control, the T/C (endpoint: median survival time, dose: 7.5 mg/kg/injection, schedule: Q01DX005 (ip), vehicle: saline) was 123 % of control and the T/C (endpoint: median survival time, dose: 8.0 mg/kg/injection, schedule: Q04DX002 (ip), vehicle: saline) was 256 % of control and 329 % of control. The T/C (endpoint: median survival time, dose: 15.0 mg/kg/injection, schedule: Q01DX005 (ip), vehicle: saline) was 100 % of control, the T/C (endpoint: median survival time, dose: 16.0 mg/kg/injection, schedule: Q04DX002 (ip), vehicle: saline) was 243 % of control and 329 % of control and the T/C (endpoint: median survival time, dose: 30.0 mg/kg/injection, schedule: Q01DX005 (ip), vehicle: saline) was 88 % of control. For the same compound, the T/C (endpoint: median survival time, dose: 32.0 mg/kg/injection, schedule: Q04DX002 (ip), vehicle: saline) was 268 % of control.
